# Where two headings read alike, the source gives them in different places.
# Tests used:
# CHO cells [1] = assay: Cytotoxicity screen in CHO cells; settings: for IC50 at 48 h: Chinese hamster, CHO K1 cells; for Tox (Ant44) / tox (DFMO Assay): toxic above the stated concentration; for Tox (Ant44): listed with Ant44 assay; for tox (DFMO Assay): listed with DFMO assay
# Description: CHO K1 cells were grown in growth medium to 70% confluency and washed in PBS and trypsinized. […] Cells were spun at 100×g for 1 minute and incubated at 37° C. in a humidified CO2 incubator for 24 hours. […] Cellular ATP content was then assayed by adding 3 uL of ATPLite with a Beckman BioRAPTR FRD dispenser and incubated for 10 minutes at room temperature. Plates were spun at 200×g for 1 minute and read on a Perkin Elmer Viewlux multimode plate reader using luminescence mode. This assay was used for testing dose-response of dry powders.
# CHO K1 cells were grown in growth medium to 70% confluency and washed in PBS and trypsinized. Cells were plated in assay medium at 10000 cells/mL for 200 cells per well using a Thermo Multidrop Combi in 20 uL into a white Greiner plate. Cells were spun at 100×g for 1 minute and incubated at 37° C. in a humidified CO2 incubator for 24 hours. […] This was followed by adding by 10 μL of assay medium to all wells with a Beckman BioRAPTR FRD dispenser. The plates were spun at 200×g for 1 minute and incubated at 37° C. in a humidified 5% CO2 incubator for 48 hours. Cellular ATP content was then assayed by adding 20 μL of ATPLite with a Beckman BioRAPTR FRD dispenser and incubated for 10 min at room temperature. Plates were spun at 200×g for 1 minute and read on a Perkin Elmer Envision for multimode plate reader using luminescence mode. Duplicates were run for each compound concentration, and the curves represent the average of the duplicates as percent viability.
# The final compound concentration was either 20 μM or 10 μg/mL (depending upon the compound source). A successful PTI in Assay 1 would block the uptake of the toxic Ant44 probe and rescue the cells back to >90% relative growth vs an untreated control. It was critical to also evaluate the toxicity of the PTI by itself as a toxic PTI would give a false negative in Assay1 (and a false positive in Assay 2). […] Assay 2 then evaluated the ability of the compound to inhibit the uptake of a rescuing dose of Spermidine (Spd, 1 μM) into DFMO-treated CHO cells.
# [2] = tested on: DFMO treated Chinese hamster ovary (CHO) cells; assay: DFMO/spermidine rescue assay in CHO cells (Assay 2); assay type: cell-based; settings: for IC50 / EC50: Cricetulus griseus; for EC50: Table 2
# Description: In the reconfirmation assay compounds were run in quadruplicate. […] A PTI compound is expected to block the entry or disrupt the intracellular trafficking of spermidine and inhibit the ability of spermidine to rescue the growth or viability of DFMO treated cells.
# DFMO/Spermidine assay Here cells were treated with an inhibitor of polyamine biosynthesis (DFMO) and rescued back to high viability by the presence of exogenous polyamine (spermidine). Putative PTI compounds were screened for their ability to block the entry or intracellular trafficking of exogenous spermidine (or otherwise disrupt the intracellular trafficking of spermidine) by measuring cell viability in the presence of DFMO+spermidine+PTI compound. […] This was followed by adding 10 μL of […] and 5 μM spermidine (FAC 5 mM DFMO and 1 μM spermidine) in assay medium with a Beckman BioRAPTR FRD dispenser or 10 μL of 5 mM DFMO added in assay medium (positive control). […] A PTI compound is expected to block the entry or disrupt the intracellular trafficking of spermidine and inhibit the ability of spermidine to rescue the growth or viability of DFMO treated cells Cytotoxicity
# CHO cells [3] = assay: Ant44 rescue assay in CHO cells (Assay 1); assay type: cell-based, Chinese hamster; settings: for IC50 / EC50: Cricetulus griseus; for Ant44 EC40: Table 1; for Active in Ant44 assay?: Table 2, in CHO; for Ant44 IC50: Table 4B
# Description: CHO K1 cells were grown in growth medium (RPMI+10% FBS+1×P/S+1% l-glutamine) to 70% confluency, washed in PBS and trypsinized. Cells were plated in assay medium (serum free RPMI+2% FBS+1×l-glutamine+1×P/S+[…] aminoguanidine) at 50000 cells/mL for 200 cells per well in 4 ul using a Thermo Multidrop Combi into a 1536-well white Aurora plate.
# Ant44 is a cytotoxic polyamine, i.e., N^1-(9-anthracenyl)-homospermidine. A non-toxic PTI compound would block entry or intracellular trafficking of the Ant44 toxin and rescue the cells back to high viability. Therefore, this screen tested for compounds which rescued cells from Ant44 toxicity. […] This was followed by adding 10 uL of 10 uM Ant44 (FAC 2 uM) in assay medium with a Beckman BioRAPTR FRD dispenser or 10 uL of cells added in assay medium (positive control).
# [4] = CHO, Table 7, read-out: SAR IC50 DFMO assay
# [5] = Table 1 HTS top hits, CHO cells, read-out: DFMO Assay IC50
# [6] = CHO, Table 7, read-out: SAR IC50 Ant44 assay
# [7] = Table 1 HTS top hits, CHO cells, read-out: Ant44 EC50
# [8] = Table 1 HTS top hits, CHO cells
# [9] = CHO, Table 4B, read-out: DFMO/CHO IC50
# [10] = CHO, Table 2, Active in Ant44 assay?, read-out: Ant44 assay EC50 in CHO
Structure (SMILES),"IC50 [2, 4] [µM]","IC50 [2, 5] [µM]",IC50 at 48 h (CHO cells [1]) [µM],Tox (Ant44) (CHO cells [1]; CHO cells),tox (DFMO Assay) (CHO cells [1]; CHO cells),IC50 (CHO cells [3]; [6]) [µM],EC50 (CHO cells [3]; [7]) [µM],also measured
"NCCC[C@](N)(C(=O)O)C(F)F [DFMO, alpha-difluoromethylornithine, reference compound]",–,–,–,–,–,–,–,"IC50 (CHO cells [1]; Cricetulus griseus, CHO, 48 h, read-out: 48 h IC50): 4200 µM"
"COc1ccccc1C(=O)Nc1ccc(N2CCN(c3cc(Cl)ccc3C)CC2)cc1C(=O)O [SBI-0351221, 5-(4-(5-chloro-2-methylphenyl)piperazin-1-yl)-2-(2-methoxybenzamido)benzoic acid]",21,~10,19,SBI- 0351221.0002 (10 EC50) Tox >10 μM,"SBI- 0351221.0002 (IC50 ~10), toxic >10 μM",2,10,–
Cc1ccc(C)c(N2CCN(c3ccc(N4C(=O)CC(c5ccccc5)C4=O)cc3[N+](=O)[O-])CC2)c1 (stereo not shown) [SBI-0372958],27,–,32,–,–,–,–,–
COc1ccc(CC(=O)Nc2ccc(N3CCN(c4cc(Cl)ccc4C)CC3)cc2C(=O)O)cc1 [SBI-0754480],–,5 to 10,24,–,> 20 µM,32,31,–
COc1ccccc1N1CCN(c2ccc(N3C(=O)CCC3=O)cc2[N+](=O)[O-])CC1 [SBI-0800661],30,> 20,27,–,–,> 40,–,Ant44 EC50 (CHO cells [3]; [8]): SBI- 0800661.0001 No effect
COc1ccc(C(=O)Nc2ccc(N3CCN(c4cc(Cl)ccc4C)CC3)c(C(=O)O)c2)cc1 [SBI-0800662],5,~5,14,–,–,> 40,–,Ant44 EC50 (CHO cells [3]; [8]): SBI- 0800662.0001 No effect
Cc1cccc(N2CCN(c3ccc(NC(=O)c4ccccc4F)cc3C(=O)O)CC2C)c1 (stereo not shown) [SBI-0800663],> 40,–,> 40,–,–,–,–,–
COc1ccccc1N1CCN(c2ccc(NC(=O)c3cccs3)cc2C(=O)O)CC1 [SBI-0800666],27,20 to 32,> 40,–,–,> 40,–,Ant44 EC50 (CHO cells [3]; [8]): SBI- 0800666.0001 No effect
Cc1ccc(C(=O)Nc2ccc(N3CCN(c4cc(Cl)ccc4C)CC3)c(C(=O)O)c2)cc1 [SBI-0800669],5,2 to 5,12,–,> 10 µM,> 40,–,Ant44 EC50 (CHO cells [3]; [8]): SBI- 0800669.0001 No effect
COc1ccccc1N1CCN(c2ccc(NC(=O)c3ccccc3Cl)c(C(=O)O)c2)CC1 [SBI-0800670],–,10 to 15,36,SBI- 0800670.0001 (20 EC50) Tox >20 μM,> 15 µM,16,20,–
COc1ccc(C(=O)Nc2ccc(N3CCN(c4ccc(C(C)=O)cc4)CC3)cc2C(=O)O)cc1 [SBI-0800674],21,~5,20,> 5 µM,> 10 µM,> 40,–,Ant44 EC50 (CHO cells [3]; [8]): no effect
Cc1ccc(CC(=O)Nc2ccc(N3CCN(c4ccccc4Cl)CC3)cc2C(=O)O)cc1 [SBI-0800675],32,> 25,> 40,SBI- 0800675.0001 (31 EC50) Tox >31 μM,no tox,16,31,–
COc1ccccc1C(=O)Nc1ccc(N2CCN(c3cccc(C)c3C)CC2)cc1C(=O)O [SBI-0800676],23,~15,28,SBI- 0800676.0001 (20 EC50) Tox >20 μM,"SBI- 0800676.0001 (IC50 ~15, tox >15) μM",2,20,–
COc1ccc(C(=O)Nc2ccc(N3CCN(c4ccccc4)CC3)cc2C(=O)O)cc1 [SBI-0800679],15,10 to 15,–,"SBI- 0800679.0001 EC40 near 20 μM, Tox >20 μM)",> 15 µM,> 40,–,"activity in DFMO assay ([2]; CHO cells): active; EC50 ([2]; CHO): 10 µM; IC50 [2, 9]: 15 µM; general toxicity (CHO cells [1]; CHO cells): modest level of toxicity; CHO MTD (CHO cells [1]; hamster): 10 µM; CHO MTD EC50 (CHO cells [1]; hamster): (17) μM; EC50 (CHO cells [3]; [10]): > 10 µM; Ant44 EC40 (CHO cells [3]; CHO cells): SBI- 0800679.0001 EC40 near 20 μM, Tox >20 μM); Active in Ant44 assay? (CHO cells [3]): Yes; Ant44 IC50 (CHO cells [3]; CHO cells): trace"
COc1ccc(C(=O)Nc2ccc(N3CCN(c4ccc(OC)cc4)CC3)cc2C(=O)O)cc1 [SBI-0800680],> 40,> 31,> 40,~5 µM,no tox,> 40,31,–
COc1ccc(C(=O)Nc2ccc(N3CCN(c4ccccc4Cl)CC3)cc2C(=O)O)cc1 [SBI-0800682],27,10 to 15,28,> 20 µM,> 10 µM,> 40,–,Ant44 EC40 (CHO cells [3]; CHO cells): ~15 µM
CCOc1ccccc1N1CCN(c2ccc(NC(=O)c3ccc(OC)cc3)c(C(=O)O)c2)CC1 [SBI-0800683],20,~20,37,SBI- 0800683.0001 (20 μM EC50) Tox >20 μM,"SBI- 0800683.0001 (IC50 ~20 μM, tox >20 μM)",> 40,20,"EC50 ([2]; CHO): ~20 µM; IC50 [2, 9]: 20 µM; CHO MTD (CHO cells [1]; hamster): 20 µM; CHO MTD EC50 (CHO cells [1]; hamster): (37) μM; EC50 (CHO cells [3]; [10]): ~20 µM; Active in Ant44 assay? (CHO cells [3]): Yes; Ant44 IC50 (CHO cells [3]; CHO cells): trace"
COc1ccc(C(=O)Nc2ccc(N3CCN(c4cccc(C)c4C)CC3)cc2C(=O)O)cc1 [SBI-0800686],–,~5,–,"SBI- 0800686.0001 Tox >10, EC50 near 10 μM","SBI- 0800686.0001 (IC50 ~5, tox >5) μM",–,~10,–
CCN(CC)C(=O)CN1CCN(c2ccc(NC(=O)c3ccc(OC)cc3)c(C(=O)O)c2)CC1 [SBI-0800690],> 40,~20,28,–,"SBI- 0800690.0001 (IC50 ~20, tox >20) μM",> 40,–,Ant44 EC50 (CHO cells [3]; [8]): SBI- 0800690.0001 No effect
COc1ccc(C(=O)Nc2ccc(N3CCCN(c4ncccn4)CC3)cc2C(=O)O)cc1 [SBI-0800691],> 40,–,> 40,No tox,No tox,12,10 to 15,"DFMO Assay IC50 [2, 8]: No effect; Active in DFMO assay? ([2]; Table 3, in CHO): No in CHO; DFMO/CHO IC50 ([2]; Table 5B): trace; MTD CHO (CHO cells [1]; hamster): >32 µM; activity in Ant44 assay (CHO cells [3]; CHO cells): robust Ant44 uptake inhibition activity; EC50 (CHO cells [3]; CHO, Table 3, read-out: Ant44 rescue EC50 CHO): ~11 µM; IC50 (CHO cells [3]; Table 5B, CHO cells, read-out: Ant44 IC50): 12 µM"
COc1ccc(C(=O)Nc2ccc(N3CCC(N4CCCCC4)CC3)cc2C(=O)O)cc1 [SBI-0800694],> 40,–,> 40,–,–,–,–,–

# Source: patent US11905268B2, “Anthranilic acid derivatives and their use in the treatment of human cancers” (UNIVERSITY OF CENTRAL FLORIDA RESEARCH FOUNDATION, INC., priority 2018, dated 2024)
